Results on three compounds are retold here after patent US20220331309A1, “PHARMACEUTICAL COMPOSITION FOR TREATING INSOMNIA” (priority 2019, published 2022).

For series [1], the system named is CYP3A. The following applies: FDA guidance classification; cited from earlier work.
Series [2] can be described thus: Single dose administration test of lemborexant in healthy adults (Test Example 3). It counts as in vivo, human. The following applies: for AUC(0-inf) / Cmax: human, plasma, oral. How it is done:
In 64 cases of healthy adults under a feed-deprived condition, the pharmacokinetics of lemborexant administered with single doses of 1, 2.5, 5, 10, 25, 50, 100, and 200 mg thereof was examined by a randomized, double-blinded, placebo-controlled, multi-stage single administration test. In each group, lemborexant was administered to six cases, and the placebo was administered to two cases.
The transition of the mean lemborexant concentration in the plasma when single doses of 1, […], 10, 25, 50, 100, and 200 mg lemborexant were administered to the healthy adults is shown in FIG. 1.

Series [3] is described as follows: Pharmacokinetics of lemborexant alone and in combination with fluconazole in healthy adults (Test Example 1-1). The following applies: for Cmax (geometric mean): healthy adults. How it is done: A single dose of 10 mg lemborexant was administered to fourteen healthy adults (males and females, 18 to 55 years old) (single administration of lemborexant); 200 mg of fluconazole was administered one time per day (two times only on Day 11) from Day 11 to Day 26 where the single administration of the lemborexant was defined as Day 1; and a single dose of 10 mg lemborexant was administered on Day 15 (administration of lemborexant in combination with fluconazole). The concentrations of lemborexant in the plasma during the single administration of lemborexant and during the administration of lemborexant in combination with fluconazole were measured with a high performance liquid chromatograph/tandem mass spectrometry (hereinafter, referred to as “LC-MS/MS”) under the following conditions to calculate the geometric means of the Cmax and the AUC (0-inf).
(§1) HPLC (pump: LC-10ADvp or LC 20AD, Autosampler SLL 20ACHT, SHIMADZU Corporation) mass spectrometer (API5000 or API5500, AB Sciex)
(§2) A 10 μL solution of an internal standard substance (lemborexant labeled with deuterium) was added to 100 μL of a human plasma, and the resulting mixture was convened into a basic condition with 10 μL of aqueous ammonia and was subjected to liquid-liquid extraction with methyl tert-butyl ether (MTBE). After stirring (for about 10 minutes) and centrifugation (about 14000 rpm, for about 10 minutes) were performed, the upper layer was evaporated into dryness at 30° C. under a nitrogen stream, and was redissolved with 200 μL of a mixed solution (50/50, v/v) of 0.1% formic acid-containing acetonitrile/water to prepare a sample for LC-MS/MS.
(§3) The measurement was performed in an MRM mode by positive detection of an electrospray ionization (ESI) method. […] A variety of parameters for AP15500/5500 Qtrap used are shown below. Ion spray Voltage: 5500 v, Curtain Gas 40, CAD 8, Gas1 70, Gas2 70, DP100, Dwell time 250 (parameters are not limited to these)
(§4) The lemborexant concentration in the plasma was calculated using an internal standard calibration curve created through inverse regression according to the method of least squares generated from the ratio of the peak area of lemborexant to that of the internal standard substance.

Series [4] can be described thus: Pharmacokinetics of lemborexant alone and in combination with itraconazole in healthy adults (Test Example 1-2). The following applies: for Cmax (geometric mean): healthy adults. The protocol:
as §1, §2, §3, §4
A single dose of 10 mg lemborexant was administered to fifteen healthy adults (males and females, 21 to 55 years old) (single administration of lemborexant); 200 mg of itraconazole was administered one time per day from Day 15 to Day 34 where the single administration of lemborexant was defined as Day 1; and a single dose of 10 mg lemborexant was administered on Day 22 (administration of lemborexant in combination with itraconazole).

The nature of series [5]: Prediction of pharmacokinetics of 2.5 mg lemborexant in combination with agent moderately or strongly inhibiting CYP3A (Test Example 1-3, dose proportionality). It counts as in vivo, human. The following applies: for AUC(0-inf) / Cmax: both sexes, human, plasma, oral; for AUC(0-inf): read-out: mean AUC (0-inf) achieved; for Cmax: read-out: mean Cmax achieved. How it is done: The results are shown in Tables 3 and 4 with the actually measured values of the single administration of 10 mg lemborexant in Sections (1-1) and (1-2) above.

Setting [6] is: all administration groups, in average.
Setting [7] is: 10 mg lemborexant in combination with fluconazole.
The mark [8] stands for this setting: both, human, plasma, oral, 10 mg.
Setting [9] is: combination with fluconazole vs single administration, 10 mg lemborexant.
The mark [10] stands for this setting: single administration of 10 mg lemborexant, plasma.
Setting [11] is: 10 mg lemborexant in combination with itraconazole.
Where [12] appears, read: combination with itraconazole vs single administration, 10 mg lemborexant.
[13] abbreviates: 2.5 mg lemborexant in combination with fluconazole.
Setting [14] is: 2.5 mg lemborexant in combination with itraconazole.
Where [15] appears, read: 2.5 mg lemborexant, lower to upper limit of 95% CI in combination with fluconazole.
The mark [16] stands for this setting: 2.5 mg lemborexant, lower to upper limit of 95% CI in combination with itraconazole.

`CCC(C)n1ncn(-c2ccc(N3CCN(c4ccc(OCC5COC(Cn6cncn6)(c6ccc(Cl)cc6Cl)O5)cc4)CC3)cc2)c1=O` (stereo not shown) [Itraconazole, itraconazole]: the “Classification of CYP3A inhibiting action of drug used in combination” value in series [1] is listed as “Strongly”.
What is called AUC(0-inf) is total exposure, with the tail of the curve extrapolated. As a reminder, the Cmax is the highest concentration seen after dosing. As to `Cc1ncc(OC[C@@]2(c3cccc(F)c3)C[C@H]2C(=O)Nc2ccc(F)cn2)c(C)n1` [lemborexant, (1R,2S)-2-(((2,4-dimethylpyrimidin-5-yl)oxy)methyl)-2-(3-fluorophenyl)-N-(5-fluoropyridin-2-yl)cyclopropanecarboxamide], the “exposure until 9 hours after administration as proportion of the AUC (0-inf)” value in series [2] (setting [6]) is on record as “about 45%”. Besides, the “exposure until 9 hours after administration as proportion of the exposure until 24 hours” value in series [2] (setting [6]) was “about 75%”. In series [2] (dose of 10 mg or more), the “increase of geometric mean Cmax relative to dose” value is recorded as “slightly lower than the dose ratio”. Further, the “dose dependence of the mean AUC (0-24 h)” value in series [2] (examined dose range 1 to 200 mg) is listed as “approximately dose proportionality”. Further, the AUC(0-inf) in series [2] (5 mg, single administration of 5 mg lemborexant, healthy adults, read-out: AUC(0-inf), Geometric mean) amounted to 0.146 µg·h/mL; in series [2] (5 mg, single administration of 5 mg lemborexant, healthy adults, read-out: AUC(0-inf), Mean), 0.149 µg·h/mL; in series [2] (5 mg, single administration of 5 mg lemborexant, healthy adults, read-out: AUC(0-inf), Median) it was 0.139 µg·h/mL; in series [2] (5 mg, single administration of 5 mg lemborexant, healthy adults, read-out: AUC(0-inf), Minimum value), 0.123 µg·h/mL; in series [2] (5 mg, single administration of 5 mg lemborexant, healthy adults, read-out: AUC(0-inf), maximum value) it was 0.209 µg·h/mL; in series [2] (5 mg, single dose of 5 mg lemborexant, read-out: AUC (0-inf), lower limit value of the 95% confidence interval), 0.113 µg·h/mL. The AUC(0-inf) was determined as 0.189 µg·h/mL in series [2] (5 mg, single dose of 5 mg lemborexant, read-out: AUC (0-inf), upper limit value of the 95% confidence interval); 0.299 µg·h/mL in series [2] (10 mg, single administration of 10 mg lemborexant, healthy adults, read-out: AUC(0-inf), Geometric mean); 0.311 µg·h/mL in series [2] (10 mg, single administration of 10 mg lemborexant, healthy adults, read-out: AUC(0-inf), Mean); 0.314 µg·h/mL in series [2] (10 mg, single administration of 10 mg lemborexant, healthy adults, read-out: AUC(0-inf), Median); 0.188 µg·h/mL in series [2] (10 mg, single administration of 10 mg lemborexant, healthy adults, read-out: AUC(0-inf), Minimum value); 0.409 µg·h/mL in series [2] (10 mg, single administration of 10 mg lemborexant, healthy adults, read-out: AUC(0-inf), maximum value). Moreover, the AUC(0-inf) in series [2] (10 mg, single dose of 10 mg lemborexant, read-out: AUC (0-inf), lower limit value of the 95% confidence interval) is 0.216 µg·h/mL; in series [2] (10 mg, single dose of 10 mg lemborexant, read-out: AUC (0-inf), upper limit value of the 95% confidence interval) it was 0.414 µg·h/mL; in series [2] (dose 5 to 10 mg, lower 95% CI limit Table 9 (5 mg) to upper 95% CI limit Table 4 (10 mg), read-out: mean AUC (0-inf) achieved) it was 0.113 to 0.537 µg·h/mL; in series [3] (setting [8]), 0.374 µg·h/mL; in series [4] (setting [8]) it was 0.433 µg·h/mL; in series [5] (setting [15]), 0.308 to 0.445 µg·h/mL. The AUC(0-inf) in series [5] (setting [16]) was 0.374 to 0.533 µg·h/mL; in series [5] (2.5 mg lemborexant with moderate or strong CYP3A inhibitor, lower 95% CI limit with fluconazole to upper 95% CI limit with itraconazole), 0.308 to 0.533 µg·h/mL. Further, the maximum concentration (Cmax) in series [2] (5 mg, single administration of 5 mg lemborexant, healthy adults, read-out: Cmax, Geometric mean) turned out to be 0.0223 µg/mL; in series [2] (5 mg, single administration of 5 mg lemborexant, healthy adults, read-out: Cmax, Mean), 0.0227 µg/mL; in series [2] (5 mg, single administration of 5 mg lemborexant, healthy adults, read-out: Cmax, Median) it was 0.0219 µg/mL; in series [2] (5 mg, single administration of 5 mg lemborexant, healthy adults, read-out: Cmax, Minimum value), 0.0172 µg/mL; in series [2] (5 mg, single administration of 5 mg lemborexant, healthy adults, read-out: Cmax, maximum value) it was 0.03 µg/mL; in series [2] (5 mg, single dose of 5 mg lemborexant, read-out: Cmax, lower limit value of the 95% confidence interval), 0.0183 µg/mL. Moreover, the Cmax in series [2] (5 mg, single dose of 5 mg lemborexant, read-out: Cmax, upper limit value of the 95% confidence interval) worked out at 0.0273 µg/mL; in series [2] (10 mg, single administration of 10 mg lemborexant, healthy adults, read-out: Cmax, Geometric mean), 0.032 µg/mL; in series [2] (10 mg, single administration of 10 mg lemborexant, healthy adults, read-out: Cmax, Mean) it was 0.036 µg/mL; in series [2] (10 mg, single administration of 10 mg lemborexant, healthy adults, read-out: Cmax, Median), 0.0314 µg/mL; in series [2] (10 mg, single administration of 10 mg lemborexant, healthy adults, read-out: Cmax, Minimum value) it was 0.0169 µg/mL; in series [2] (10 mg, single administration of 10 mg lemborexant, healthy adults, read-out: Cmax, maximum value), 0.0621 µg/mL. In addition, the Cmax in series [2] (10 mg, single dose of 10 mg lemborexant, read-out: Cmax, lower limit value of the 95% confidence interval) is 0.0183 µg/mL; in series [2] (dose 5 to 10 mg, lower limit for 5 mg with weak CYP3A inhibitor to upper 95% CI limit Table 8 (10 mg), read-out: mean Cmax achieved) it was 0.0165 to 0.056 µg/mL; in series [5] (setting [15]), 0.0181 to 0.0269 µg/mL; in series [5] (setting [16]), 0.017 to 0.0211 µg/mL; in series [5] (2.5 mg, 2.5 mg lemborexant with moderate or strong CYP3A inhibitor, lower 95% CI limit with itraconazole to upper 95% CI limit with fluconazole), 0.017 to 0.0269 µg/mL. The “Cmax, upper limit value of the 95% confidence interval” value in series [2] (single dose of 10 mg lemborexant) is 0.056 µg/mL. Also, the “elimination profile of plasma concentration after administration” value in series [2] (single doses 1 to 200 mg, healthy adults) was “biphasic elimination”. Also, the entries for the “increase of mean AUC (0-inf) compared to single administration” value in series [3] (setting [7]) and in series [4] (setting [11]) were 317% and 270%, respectively. Also, the “increase of mean Cmax compared to single administration” value is listed as 62% in series [3] (setting [7]) and 36% in series [4] (setting [11]). Further, the “Cmax (geometric mean)” value was determined as 0.0883 µg/mL in series [3] (10 mg lemborexant in combination with fluconazole 200 mg once per day, plasma); 0.0544 µg/mL in series [3] (setting [10]); 0.0739 µg/mL in series [4] (10 mg lemborexant in combination with itraconazole 200 mg once per day, plasma); 0.0543 µg/mL in series [4] (setting [10]). Besides, in series [3] (setting [9]), the “AUC(0-inf) ratio of (b) to (a)” value was determined as 4.17. The “Cmax ratio of (b) to (a)” value in series [3] (setting [9]) amounted to 1.62. The “AUC(0-inf) ratio of (d) to (c)” value in series [4] (setting [12]) came out at 3.70. Also, the “Cmax ratio of (d) to (c)” value in series [4] (setting [12]) stood at 1.36. Besides, the “AUC(0-inf), predicted value (geometric mean)” value in series [5] (setting [13]) was 0.37 µg·h/mL; in series [5] (setting [14]), 0.447 µg·h/mL. Besides, the “Cmax, predicted value (geometric mean)” value in series [5] (setting [13]) is 0.0221 µg/mL; in series [5] (setting [14]), 0.0189 µg/mL. In series [5] (setting [13]), the “predicted mean AUC (0-inf) lower than mean AUC (0-inf) of single 10 mg dose” value was 1.1%. Further, the “predicted mean Cmax lower than mean Cmax of single 10 mg dose” value in series [5] (setting [13]) was 59.4%. For the same compound, the “predicted mean AUC (0-inf) higher than mean AUC (0-inf) of single 10 mg dose” value in series [5] (setting [14]) is 32%.
With `OC(Cn1cncn1)(Cn1cncn1)c1ccc(F)cc1F` [fluconazole], in series [1], the “Classification of CYP3A inhibiting action of drug used in combination” value is “moderately”.
